Values belong to the molecule of their own block, whether it stands above or below them.
What was measured:
[1] = Henry solubility constant Hcp at 298.15 K (mol/(m3 Pa))
[2] = Henry solubility constant Hcp at 296 K (mol/(m3 Pa))
[3] = Henry solubility constant Hcp at 310 K (mol/(m3 Pa))
[4] = reference: Arp and Schmidt (2004)
[5] = reference: Miller and Stuart (2000)
[6] = reference: Xu and Kropscott (2014)
[7] = reference: Lerman et al. (1983)
[8] = reference: Smith et al. (1981b)
[9] = reference: Bissonette et al. (1990)
[10] = reference: Johanson and Dynésius (1988)
[11] = reference: Warner et al. (1980)
[12] = reference: Fendinger et al. (1989)

- Henry solubility constant Hcp [1, 4]: 0.0061
- Henry solubility constant Hcp ([1]; reference: Haimi et al. (2006)): 0.0064
- Henry solubility constant Hcp ([1]; reference: Hwang et al. (2010)): 0.12
- Henry solubility constant Hcp ([1]; reference: Sieg et al. (2009)): 0.0063
- Henry solubility constant Hcp at 296 K [2, 5]: 0.0042
SMILES: CCOC(C)(C)C [ethyl tert-butyl ether]

- Henry solubility constant Hcp [1, 6]: 1.3e-06
- Henry solubility constant Hcp at 296 K ([2]; reference: David et al. (2000)): 7.7e-07
SMILES: C[Si](C)(C)O[Si](C)(C)C [hexamethyldisiloxane]

SMILES: FC(F)OC(F)(F)C(F)Cl (centres undefined) [2-chloro-1,1,2-trifluoroethyl difluoromethyl ether]
- Henry solubility constant Hcp at 310 K [3, 7]: 0.00029

- Henry solubility constant Hcp [1, 8]: 0.00053
- Henry solubility constant Hcp at 310 K [3, 7]: 0.00033
- Henry solubility constant Hcp at 310 K ([3]; reference: Saidman et al. (1966)): 0.00034
- Henry solubility constant Hcp at 310 K ([3]; reference: Stoelting and Longshore (1972)): 0.00032
SMILES: FC(F)(F)C(Cl)Br (centres undefined) [1-bromo-1-chloro-2,2,2-trifluoroethane]

- Henry solubility constant Hcp ([1]; reference: Crovetto et al. (1982)): 4.4e-06
- Henry solubility constant Hcp ([1]; reference: Krause and Benson (1989)): 4.5e-06
- Henry solubility constant Hcp ([1]; reference: Lannung (1930)): 4.6e-06
- Henry solubility constant Hcp ([1]; reference: Morrison and Johnstone (1954)): 4.5e-06
- Henry solubility constant Hcp ([1]; reference: von Antropoff (1910)): 6.6e-06
- Henry solubility constant Hcp at 310 K ([3]; reference: Power and Stegall (1970)): 4.3e-06
SMILES: [Ne] [neon]

SMILES: Cc1cccc(C)c1 [1,3-dimethylbenzene]
- Henry solubility constant Hcp [1, 9]: 0.0014
- Henry solubility constant Hcp ([1]; reference: Li et al. (2008)): 0.0014
- Henry solubility constant Hcp ([1]; reference: Tsibul’skii et al. (1979)): 0.0018
- Henry solubility constant Hcp at 310 K ([3]; reference: McIntosh and Heffron (2000)): 0.00066

- Henry solubility constant Hcp ([1]; reference: Xu and Kropscott (2012)): 3e-07
- Henry solubility constant Hcp [1, 6]: 2.8e-07
- Henry solubility constant Hcp at 296 K ([2]; reference: David et al. (2000)): 7.4e-05
SMILES: C[Si]1(C)O[Si](C)(C)O[Si](C)(C)O[Si](C)(C)O[Si](C)(C)O1 [decamethylcyclopentasiloxane]

- Henry solubility constant Hcp at 310 K ([3]; reference: Järnberg and Johanson (1995)): 0.0011
SMILES: Cc1cccc(C)c1C [1,2,3-trimethylbenzene]

- Henry solubility constant Hcp ([1]; reference: Copolovici and Niinemets (2007)): 0.00026
- Henry solubility constant Hcp ([1]; reference: Fichan et al. (1999)): 0.0007
- Henry solubility constant Hcp ([1]; reference: Leng et al. (2013)): 0.00048
- Henry solubility constant Hcp at 310 K ([3]; reference: Falk et al. (1990)): 0.0007
SMILES: C=C(C)C1CC=C(C)CC1 (centres undefined) [1-methyl-4-(1-methylethenyl)-cyclohexene]

- Henry solubility constant Hcp ([1]; reference: Buttery et al. (1965)): 0.058
- Henry solubility constant Hcp ([1]; reference: Ji and Evans (2007)): 0.071
- Henry solubility constant Hcp at 296 K ([2]; reference: Liu et al. (2015)): 0.068
SMILES: CCCCC=O [pentanal]

- Henry solubility constant Hcp [1, 4]: 0.0039
- Henry solubility constant Hcp ([1]; reference: Hwang et al. (2010)): 0.015
- Henry solubility constant Hcp ([1]; reference: Nielsen et al. (1994)): 0.0048
- Henry solubility constant Hcp at 296 K [2, 5]: 0.0043
SMILES: CC(C)OC(C)C [diisopropyl ether]

- Henry solubility constant Hcp at 310 K [3, 10]: 14
SMILES: COCCO [2-methoxyethanol]

SMILES: CCc1ccccc1 [ethylbenzene]
- Henry solubility constant Hcp ([1]; reference: Allen et al. (1998)): 0.0013
- Henry solubility constant Hcp [1, 9]: 0.0011
- Henry solubility constant Hcp ([1]; reference: Brown and Wasik (1974)): 0.0013
- Henry solubility constant Hcp ([1]; reference: Ervin et al. (1980)): 0.0014
- Henry solubility constant Hcp ([1]; reference: Hartkopf and Karger (1973)): 0.0016
- Henry solubility constant Hcp ([1]; reference: Heidman et al. (1985)): 0.0013
- Henry solubility constant Hcp ([1]; reference: Li et al. (2008)): 0.0014
- Henry solubility constant Hcp ([1]; reference: Lodge and Danso (2007)): 0.0011
- Henry solubility constant Hcp ([1]; reference: Mackay et al. (1979)): 0.0012
- Henry solubility constant Hcp ([1]; reference: Perlinger et al. (1993)): 0.0013
- Henry solubility constant Hcp ([1]; reference: Robbins et al. (1993)): 0.0013
- Henry solubility constant Hcp ([1]; reference: Sanemasa et al. (1981)): 0.0014
- Henry solubility constant Hcp ([1]; reference: Sieg et al. (2009)): 0.0013
- Henry solubility constant Hcp ([1]; reference: Turner et al. (1996)): 0.0011
- Henry solubility constant Hcp [1, 11]: 0.0015
- Henry solubility constant Hcp at 296 K [2, 5]: 0.0016

- Henry solubility constant Hcp at 310 K [3, 10]: 8.9
SMILES: CCOCCO [2-ethoxyethanol]

SMILES: CCOP(=S)(OCC)Oc1cc(C)nc(C(C)C)n1 [diazinon]
- Henry solubility constant Hcp ([1]; reference: Feigenbrugel et al. (2004a)): 15
- Henry solubility constant Hcp at 296 K ([2]; reference: Fendinger and Glotfelty (1988)): 88
- Henry solubility constant Hcp at 296 K [2, 12]: 84

- Henry solubility constant Hcp [1, 8]: 0.00048
- Henry solubility constant Hcp at 310 K [3, 7]: 0.00024
SMILES: FC(F)OC(Cl)C(F)(F)F (centres undefined) [1-chloro-2,2,2-trifluoroethyl difluoromethyl ether]

- Henry solubility constant Hcp at 310 K ([3]; reference: Edelist et al. (1964)): 0.00012
SMILES: FC(Br)C(F)(F)F (centres undefined) [1-bromo-1,2,2,2-tetrafluoroethane]

SMILES: Clc1ccc(C(c2ccc(Cl)cc2)C(Cl)(Cl)Cl)cc1 [1,1,1-trichloro-2,2-bis-(4-chlorophenyl)-ethane]
- Henry solubility constant Hcp [1, 12]: 1.2
- Henry solubility constant Hcp at 296 K [2, 12]: 0.77

SMILES: CCOCCOC(C)=O [2-ethoxyethyl ethanoate]
- Henry solubility constant Hcp at 310 K [3, 10]: 1.5

- Henry solubility constant Hcp [1, 4]: 0.0086
- Henry solubility constant Hcp ([1]; reference: Haimi et al. (2006)): 0.01
- Henry solubility constant Hcp ([1]; reference: Hwang et al. (2010)): 0.053
- Henry solubility constant Hcp ([1]; reference: Park et al. (1997)): 0.007
- Henry solubility constant Hcp at 296 K [2, 5]: 0.0052
SMILES: CCC(C)(C)OC [2-methoxy-2-methylbutane]

SMILES: ClC(Cl)Br [bromodichloromethane]
- Henry solubility constant Hcp ([1]; reference: Ervin et al. (1980)): 0.0035
- Henry solubility constant Hcp ([1]; reference: Nicholson et al. (1984)): 0.0047
- Henry solubility constant Hcp ([1]; reference: Ruiz-Bevia and Fernandez-Torres (2010)): 0.0058
- Henry solubility constant Hcp [1, 11]: 0.0047
- Henry solubility constant Hcp at 310 K ([3]; reference: Zhang et al. (2002)): 0.0029

Reference: Sander's compilation of Henry's law constants
